Source: patent publication US20250099420A1, “SMALL MOLECULE MODULATORS OF GPR139 COMPLEX” (University of Florida Research Foundation, Incorporated, priority 2022, published 2025)
Where two headings read alike, the source gives them in different places.

What was measured:
GPR139 = target: T1, GPR139 (Homo sapiens, UniProt Q6DWJ6); assay: GPR139 Agonist titration / agonist counterscreen assay (calcium detection, HEK-GPR139 cells); format: cell-based; set-up: expressed in transfected cells; host or cells: HEK Aequorin cells, Maxcyte transient transfection; conditions: GPR139 Agonist Activity; for Averaged Max % Response (±St. Dev.): activity relative to known control; for EC50: read-out: EC50
T1 sequence (Q6DWJ6 1-353): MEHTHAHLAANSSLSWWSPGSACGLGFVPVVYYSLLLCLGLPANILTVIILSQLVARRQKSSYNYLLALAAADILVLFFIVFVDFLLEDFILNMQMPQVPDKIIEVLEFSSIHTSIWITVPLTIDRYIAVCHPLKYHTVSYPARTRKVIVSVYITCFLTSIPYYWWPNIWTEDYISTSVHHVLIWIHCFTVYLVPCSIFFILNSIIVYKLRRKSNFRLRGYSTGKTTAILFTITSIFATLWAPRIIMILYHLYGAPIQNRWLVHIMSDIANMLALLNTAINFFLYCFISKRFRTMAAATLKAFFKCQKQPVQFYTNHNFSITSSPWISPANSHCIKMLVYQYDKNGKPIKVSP
Procedure: GPR activity was assessed using a calcium detection assay. […] Negative control samples were treated with DMSO. […] Intracellular calcium was measured using Calcium 5.

parental HEK cells = assay: HEK parental Agonist Counterscreen Assay (non-transfected cells); format: cell-based; conditions: for Averaged Max % Response (±St. Dev.): activity relative to known control
Description: The high control for the agonist counterscreen was Forskolin not acetylcholine.

[1] = values printed in E-notation without unit
[2] = HEK Agonist Activity section of Table 4 (parental HEK counterscreen)
[3] = Homo sapiens, HEK293, HEK Agonist Activity section of Table 4 (parental HEK counterscreen)
[4] = Homo sapiens, HEK293, HEK Agonist Activity, parental non-transfected HEK cells
[5] = HEK Agonist Activity, parental non-transfected HEK cells

| Structure (SMILES) | Averaged Max % Response (±St. Dev.) (GPR139) | Lipophilic Efficiency (logD) (GPR139; based on logD) | Lipophilic Efficiency (logP) (GPR139; based on logP) | Hill Slope (GPR139; fitted dose-response curve) | Efficiency Ligand (GPR139; ligand efficiency) | EC50 (GPR139; [1]) | Lipophilic Efficiency (logD) (parental HEK cells; HEK Agonist Activity section) | Lipophilic Efficiency (logP) (parental HEK cells; HEK Agonist Activity section) | EC50 (parental HEK cells; [2]) | Averaged Max % Response (±St. Dev.) (parental HEK cells; HEK Agonist Activity section) | EC50 (parental HEK cells; [3]) | Lipophilic Efficiency (logD) (parental HEK cells; HEK Agonist Activity) | Lipophilic Efficiency (logP) (parental HEK cells; HEK Agonist Activity) | Averaged Max % Response (±St. Dev.) (parental HEK cells; HEK Agonist Activity) | further results |
| --- | --- | --- | --- | --- | --- | --- | --- | --- | --- | --- | --- | --- | --- | --- | --- |
| O=C(CN1C(=O)NC2(CCCc3ccccc32)C1=O)N1CCCCCC1 (stereo not shown) [SR-01000075116] | 81.52 ± 3.66% | 4.72 | 4.72 | 0.99 | 0.37 | 0.142 µM | 2.72 | 2.72 | > 14.3 µM | 4.31 ± 1.95% |  |  |  |  |  |
| O=C(CCc1nc2cccnc2n1Cc1cccs1)NCCc1cccs1 [SR-01000077903] | 105.59 ± 5.95% | 3.66 | 3.66 | 0.45 | 0.37 | 0.0602 µM | 1.29 | 1.29 |  | 1.27 ± 2.74% | > 14.1 µM |  |  |  |  |
| O=C(CCc1nc2cccnc2n1Cc1cccs1)NCCc1ccccc1 [SR-01000077904] | 79.43 ± 7.55% | 4.54 | 4.54 |  | 0.41 |  |  |  |  |  |  | 1.20 | 1.20 | −12.58 ± 9.87% | EC50 (parental HEK cells; [4]): > 14.1 µM |
| CCCn1c(CCC(=O)NCCc2ccc(OCC)cc2)nc2cccnc21 [SR-01000077930] | 102.55 ± 5.37% | 4.55 | 4.55 | 0.67 | 0.38 | 0.0228 µM |  |  |  |  |  | 1.76 | 1.76 | 1.00 ± 2.79% | EC50 (parental HEK cells; [4]): > 14.1 µM |
| Cc1cc(CC(=O)N/C=C/c2cccc3ccccc23)n[nH]1 [SR-01000080408] | 105.88 ± 16.21% | 6.30 | 4.72 | 0.34 | 0.45 |  | 4.10 | 2.51 |  | 71.97 ± 7.16% | 11.9 µM |  |  |  | Hill Slope (parental HEK cells; HEK Agonist Activity section): 1.95 |
| CC1=NNC(=O)C1CC(=O)N/N=C/c1cccc2ccccc12 (stereo not shown) [SR-01000080433] | 107.91 ± 12.91% | 4.98 | 4.98 | 0.75 | 0.40 | 0.242 µM | 3.22 | 3.22 | > 14.1 µM | 29.03 ± 7.47% |  |  |  |  |  |
| CC(C)Cn1c2c(c(=O)[nH]c1=O)C(NC(=O)CCC1CCCCC1)(C(F)(F)F)C(=O)N2 (stereo not shown) [SR-01000086488] | 78.41 ± 20.14% |  |  |  |  |  | 2.44 | 2.40 |  | 1.08 ± 3.12% | > 14.1 µM |  |  |  | Efficiency Ligand (GPR139): 0.29; Hill Slope (GPR139): 1.22; Lipophilic Efficiency (logD) (GPR139): 3.95; Lipophilic Efficiency (logP) (GPR139): 3.92; EC50 (GPR139; HEK-GPR139 cells): 0.43 µM |
| O=C(Cn1cc2c(n1)CCCCC2)NCCCc1ccccc1 [SR-01000088420] | 100.76 ± 18.47% | 3.28 | 3.28 | 1.29 | 0.41 | 0.157 µM | 1.33 | 1.33 | > 14.1 µM | 12.56 ± 5.54% |  |  |  |  |  |
| Cc1ccc(CCNC(=O)Cn2cc3c(n2)CCCCC3)cc1 [SR-01000088477] | 120.85 ± 28.06% | 4.18 | 4.18 | 0.72 | 0.47 |  |  |  |  |  |  | 1.26 | 1.26 | −0.30 ± 8.57% | EC50 (parental HEK cells; [4]): > 14.1 µM |
| O=C1N2CN(Cc3ccccc3)CN3C(=O)N4CN(Cc5ccccc5)CN1C4C23 (stereo not shown) [SR-01000090996] | 117.44 ± 4.30% | 4.52 | 4.52 | 1.21 | 0.34 | 0.0493 µM | 2.07 | 2.07 |  | −5.40 ± 6.26% | > 14.1 µM |  |  |  |  |
| CC(C)(C)n1c2c(c(=O)[nH]c1=O)C(NC(=O)CCC1CCCCC1)(C(F)(F)F)C(=O)N2 (stereo not shown) [SR-01000091502] | 88.58 ± 8.42% | 4.63 | 4.59 | 0.85 | 0.31 | 0.141 µM | 2.63 | 2.59 | > 14.1 µM | −12.00 ± 4.68% |  |  |  |  |  |
| Cc1ccccc1CN1CCN(CC(=O)NCCc2ccc(Cl)cc2)C1=O [SR-01000093460] | 112.00 ± 16.24% | 6.04 | 6.04 |  | 0.47 |  |  |  |  |  |  | 1.85 | 1.85 | 109.44 ± 22.66% | Hill Slope (parental HEK cells; HEK Agonist Activity): 15.09; EC50 (parental HEK cells; [5]): 11 µM |
| C=C(CCc1cccc(CC)c1)C(C)C1CCC(Cc2ccccc2C)C1=C (stereo not shown) [SR-01000095280] | 122.65 ± 11.25% | 6.68 | 6.68 |  | 0.41 |  |  |  |  |  |  | 2.38 | 2.38 | 25.01 ± 8.12% | EC50 (parental HEK cells; [4]): > 14.1 µM |
| Cc1cc(NC(=O)Cn2ncc3c2-c2ccccc2OC3)no1 [SR-01000098884] | 75.62 ± 16.43% |  |  |  |  |  | 3.22 | 3.22 | > 14.1 µM | 0.57 ± 13.32% |  |  |  |  | Efficiency Ligand (GPR139): 0.35; Hill Slope (GPR139): 0.72; Lipophilic Efficiency (logD) (GPR139): 4.12; Lipophilic Efficiency (logP) (GPR139): 4.12; EC50 (GPR139; HEK-GPR139 cells): 1.8 µM |
| O=C(Cn1ncc2c1-c1ccccc1OC2)Nc1ccc(CCO)cc1 [SR-01000098914] | 97.42 ± 2.76% |  |  |  |  |  | 2.18 | 2.18 |  | 11.28 ± 8.03% | > 14.1 µM |  |  |  | Efficiency Ligand (GPR139): 0.34; Hill Slope (GPR139): 0.93; Lipophilic Efficiency (logD) (GPR139): 3.66; Lipophilic Efficiency (logP) (GPR139): 3.66; EC50 (GPR139; HEK-GPR139 cells): 0.468 µM |
| CC(C)c1ccc(NC(=O)Cn2ncc3c2-c2ccccc2OC3)cc1 [SR-01000098920] | 139.09 ± 25.80% | 3.02 | 3.02 | 0.40 | 0.36 | 0.181 µM | 1.13 | 1.13 | > 14.1 µM | 10.87 ± 9.19% |  |  |  |  |  |
| CCc1cccc(NC(=O)Cn2ncc3c2-c2ccccc2OC3)c1 [SR-01000098944] | 118.40 ± 16.09% | 4.22 | 4.22 | 0.20 | 0.43 | 0.0224 µM |  |  |  |  |  | 1.42 | 1.42 | 16.33 ± 3.15% | EC50 (parental HEK cells; [5]): > 14.1 µM |
| C=C(CC1C=CC2=C1c1ccccc1CC2)Nc1ccc(CC)cc1 (stereo not shown) [SR-01000098976] | 103.10 ± 11.12% | 4.60 | 4.60 | 0.87 | 0.39 |  | 2.53 | 2.53 |  | 25.21 ± 6.04% | > 14.1 µM |  |  |  |  |
| O=C(Cn1ncc2c1-c1ccccc1OC2)Nc1ccc(Cl)cc1 [SR-01000098980] | 103.90 ± 24.19% |  |  |  |  |  | 1.77 | 1.77 | > 14.1 µM | 16.39 ± 16.07% |  |  |  |  | Efficiency Ligand (GPR139): 0.36; Hill Slope (GPR139): 0.43; Lipophilic Efficiency (logD) (GPR139): 3.09; Lipophilic Efficiency (logP) (GPR139): 3.09; EC50 (GPR139; HEK-GPR139 cells): 0.68 µM |
| CCc1nn(CC(=O)NCc2cccc(Br)c2)c(=O)c2cc3occc3n12 [SR-01000099472] | 105.06 ± 17.21% | 5.32 | 5.32 | 0.88 | 0.39 | 0.0263 µM |  |  |  |  |  | 2.60 | 2.60 | 10.79 ± 6.86% | EC50 (parental HEK cells; [4]): > 14.1 µM |
